The source of these data is US10259810B2, “N-sulfonylated pyrazolo[3,4-b]pyridin-6-carboxamides and method of use” (AbbVie S.à.r.l., priority 2015, dated 2019).

Common to all, as to assay type: cell-based
The target of one assay is T1, CFTR ΔF508 (Homo sapiens, UniProt P13569, DEL508-508).
T1 construct: bronchial epithelial cells isolated from CF patients homozygous for the CFTR ΔF508 mutation; McGill University; Asterand; University of North Carolina hAEC-CF; host or cells: primary human bronchial epithelial cells from CF patients homozygous for ΔF508, differentiated at air-liquid interface
T1 sequence (P13569 with tags, fused parts or gaps DEL508-508): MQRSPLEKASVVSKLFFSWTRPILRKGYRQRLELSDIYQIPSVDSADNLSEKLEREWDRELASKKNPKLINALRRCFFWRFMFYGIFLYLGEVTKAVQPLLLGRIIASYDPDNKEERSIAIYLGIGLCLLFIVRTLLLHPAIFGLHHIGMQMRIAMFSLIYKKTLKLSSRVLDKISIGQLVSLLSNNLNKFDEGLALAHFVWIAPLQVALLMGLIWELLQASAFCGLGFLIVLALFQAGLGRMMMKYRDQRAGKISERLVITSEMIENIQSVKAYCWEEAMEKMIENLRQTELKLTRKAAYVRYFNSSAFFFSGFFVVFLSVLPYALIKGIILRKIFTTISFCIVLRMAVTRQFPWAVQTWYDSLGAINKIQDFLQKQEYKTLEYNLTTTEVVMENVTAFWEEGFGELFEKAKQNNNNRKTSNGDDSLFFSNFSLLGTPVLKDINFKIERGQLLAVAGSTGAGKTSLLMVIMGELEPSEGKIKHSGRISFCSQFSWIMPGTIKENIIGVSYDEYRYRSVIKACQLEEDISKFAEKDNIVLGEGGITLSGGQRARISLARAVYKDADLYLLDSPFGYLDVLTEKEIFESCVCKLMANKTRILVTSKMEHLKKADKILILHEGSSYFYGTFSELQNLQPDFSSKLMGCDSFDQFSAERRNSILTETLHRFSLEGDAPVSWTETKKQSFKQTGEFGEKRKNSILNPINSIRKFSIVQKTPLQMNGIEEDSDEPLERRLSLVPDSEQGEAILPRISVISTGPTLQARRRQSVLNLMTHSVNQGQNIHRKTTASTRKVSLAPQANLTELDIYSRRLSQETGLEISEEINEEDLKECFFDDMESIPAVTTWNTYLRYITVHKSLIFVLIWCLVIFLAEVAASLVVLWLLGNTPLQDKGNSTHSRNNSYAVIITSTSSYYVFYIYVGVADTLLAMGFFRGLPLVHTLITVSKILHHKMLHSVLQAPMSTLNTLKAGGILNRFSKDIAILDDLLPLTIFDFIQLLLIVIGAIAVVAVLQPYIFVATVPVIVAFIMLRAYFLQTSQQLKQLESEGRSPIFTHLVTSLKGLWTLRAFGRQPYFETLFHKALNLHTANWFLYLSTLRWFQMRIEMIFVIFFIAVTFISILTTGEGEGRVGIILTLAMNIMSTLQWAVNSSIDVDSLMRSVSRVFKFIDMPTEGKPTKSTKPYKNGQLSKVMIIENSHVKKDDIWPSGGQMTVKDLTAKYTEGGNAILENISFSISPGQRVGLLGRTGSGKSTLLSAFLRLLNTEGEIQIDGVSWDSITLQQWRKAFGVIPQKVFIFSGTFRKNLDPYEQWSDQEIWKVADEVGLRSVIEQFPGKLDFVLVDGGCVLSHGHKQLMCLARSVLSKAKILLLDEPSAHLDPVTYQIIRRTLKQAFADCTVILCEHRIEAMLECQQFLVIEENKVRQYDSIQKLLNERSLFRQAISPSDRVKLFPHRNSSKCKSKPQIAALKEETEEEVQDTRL
The experiment in a line: Chronic TECC assay, primary bronchial epithelial cells of CF patients homozygous for CFTR ΔF508 (corrector, co-corrector and potentiator). The note with it: chronic TECC, Ieq = calculations based on the maximum current; for EC50: read-out: EC50 (nM) (Ieq*); for % Activity at 1 μM (Ieq*): test compound at 1 μM. How it is done:
Primary Bronchial Epithelial Cells Protocol
The TECC (Tranepithelial Clamp Circuit, EP-design) assay measures the functionality of the cystic fibrosis Transmembrane Conductance regulator (CFTR) by measuring the short circuit current (Isc) generated over the basolateral and apical membrane of lung epithelial cells. In TECC the transepithelial potential PD and transepithelial resistance (Rt) are measured in an open circuit and transformed to Ieq using Ohm's law. 24 Wells can be measured simultaneously allowing a higher throughput compared to Ussing chambers.
For this purpose, bronchial epithelial cells isolated from CF patients homozygous for the CFTR ΔF508 mutation (hAEC-CF, Epithelix, Geneva, Switzerland; McGill University, Montreal, Qc; Asterand, Detroit, Mich.; University of North Carolina, Chapel Hill, N.C.) are plated on type IV collagen-coated Transwell® supports (Costar).
For electrophysiological recording of the “chronic” experiments, the human airway epithelia are mounted in the TECC heating plate for electrophysiological measurement and kept at 37° C. The epithelia are bathed in a NaCl-Ringer solution (120 mM NaCl, 25 mM NaHCO3, 1.2 mM CaCl2, 1.2 mM MgCl2, 0.8 mM KH2PO4, 0.8 mM K2HPO4, pH 7.4, 5 mM glucose) on both the basolateral and apical sides. Test compounds (corrector, co-corrector, 4-[(2R,4R)-4-({[1-(2,2-difluoro-1,3-benzodioxol-5-yl)cyclopropyl]carbonyl}amino)-7-(difluoromethoxy)-3,4-dihydro-2H-chromen-2-yl]benzoic acid, and potentiator, N-(3-carbamoyl-5,5,7,7-tetramethyl-4,7-dihydro-5H-thieno[2,3-c]pyran-2-yl)-1H-pyrazole-5-carboxamide), are re-added to the recording solution prior to measurement. […] Apical amiloride is used to inhibit the endogenous ENaC currents while forskolin is applied on both apical and basolateral side to stimulate CFTR. Measurements are done during a 20 minute timeframe with recordings every 2 minutes. The increase in Ieq is used as a measure for the increased CFTR activity, EC50 values can be generated by measuring impact of different concentrations of compound on Ieq on primary cells, for this purpose each transwell is treated with a different compound concentration. […] Raw data were normalized to percentage activity values using the equation: 100×(Sample−Negative control)/(Positive control−Negative Control).

The target in assay [1] is T2, ΔF508-CFTR (Homo sapiens, UniProt P13569, DEL508-508).
T2 construct: host or cells: CFBE41o-, doxycycline-inducible
T2 sequence (P13569 with tags, fused parts or gaps DEL508-508): as above
The experiment in a line: CFTR cell surface levels using HRP-tagged ΔF508-CFTR expressing CFBE cells, in the presence of a co-corrector. Conditions: HRP-tagged ΔF508-CFTR CFBE cells, in the presence of 3 μM co-corrector; for EC50: read-out: EC50. The essentials:
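Chemiluminescent read-out of surface HRP (15 min, dark) after PBS washes. Activity is normalized as 100×(sample−DMSO)/(3 μM co-corrector alone−DMSO).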

Assay [2] addresses T2, ΔF508-CFTR. Description: CFTR cell surface levels using HRP-tagged ΔF508-CFTR expressing CFBE cells, intrinsic corrector capacity. On the set-up: % Activation: concentration or dose not given beside the values. The note with it: HRP-tagged ΔF508-CFTR expressing CFBE41o- cells, compound alone (intrinsic corrector capacity), 20 hours at 33° C.; for EC50: read-out: EC50. The essentials: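 Surface ΔF508-CFTR was measured as HRP chemiluminescence from an extracellular-loop-4 tag, expressed as percent activity between DMSO and a […] corrector control.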

Where only a bound is given, the exact number is not on record here.

Usually EC50 stands for the concentration that produces a half-maximal response. `COCCN(C)c1ccc(-c2cc(C(=O)NS(C)(=O)=O)nc3c2c(C(C)C)nn3-c2cccc(N3CCOCC3)c2)cn1` [Compound 86, N-(methanesulfonyl)-4-{6-[(2-methoxyethyl)(methyl)amino]pyridin-3-yl}-1-[3-(morpholin-4-yl)phenyl]-3-(propan-2-yl)-1H-pyrazolo[3,4-b]pyridine-6-carboxamide]: on CFTR ΔF508, the EC50 is 30 nM and the “% Activity at 1 μM (Ieq*)” value is reported as 210%. On ΔF508-CFTR [1], the “% Activation” value was found to be 489.56% and the EC50 worked out at 255 nM. On ΔF508-CFTR [2], the “% Activation” value came out at 329.92% and the EC50 was 637 nM.

As to `CC(C)c1nn(-c2cccc(N3CCOCC3)c2)c2nc(C(=O)NS(C)(=O)=O)cc(-c3ccc(N(C)C4CCOCC4)nc3)c12` [Compound 87, N-(methanesulfonyl)-4-{6-[methyl(oxan-4-yl)amino]pyridin-3-yl}-1-[3-(morpholin-4-yl)phenyl]-3-(propan-2-yl)-1H-pyrazolo[3,4-b]pyridine-6-carboxamide], at CFTR ΔF508, the EC50 was less than 30 nM and the “% Activity at 1 μM (Ieq*)” value is recorded as 150%. Also, on ΔF508-CFTR [1], the “% Activation” value is listed as 623.62% and the 50% effective concentration (EC50) came out at 456 nM. In addition, at ΔF508-CFTR [2], the “% Activation” value is 422.84% and the EC50 was found to be 409 nM.

On to `CC(C)c1nn(-c2cccc(N(C)C)c2)c2nc(C(=O)NS(C)(=O)=O)cc(-c3cnc(N(C)C4CCOCC4)nc3)c12` [Compound 91, 1-[3-(dimethylamino)phenyl]-N-(methanesulfonyl)-4-{2-[methyl(oxan-4-yl)amino]pyrimidin-5-yl}-3-(propan-2-yl)-1H-pyrazolo[3,4-b]pyridine-6-carboxamide], for which the half-maximal effective concentration (EC50) was less than 30 nM on CFTR ΔF508, 891 nM on ΔF508-CFTR [1] and 382 nM at ΔF508-CFTR [2]. Further, the “% Activity at 1 μM (Ieq*)” value at CFTR ΔF508 was 250%. For the same compound, the “% Activation” value on ΔF508-CFTR [1] is given as 619.45%; at ΔF508-CFTR [2], 388.15%.

In the case of `CC1CN(c2ccc(-c3cc(C(=O)NS(C)(=O)=O)nc4c3c(C(C)C)nn4C3CCCCC3)cn2)CC(C)O1` (stereo not drawn) [Compound 93, 1-cyclohexyl-4-[6-(2,6-dimethylmorpholin-4-yl)pyridin-3-yl]-N-(methanesulfonyl)-3-(propan-2-yl)-1H-pyrazolo[3,4-b]pyridine-6-carboxamide], at CFTR ΔF508, the EC50 is less than 30 nM and the “% Activity at 1 μM (Ieq*)” value is listed as 220%. Also, on ΔF508-CFTR [1], the “% Activation” value worked out at 456.5% and the concentration giving a half-maximal response (EC50) was 270 nM. For the same compound, at ΔF508-CFTR [2], the “% Activation” value is given as 224.23% and the half-maximal effective concentration (EC50) is 501 nM.

With `CC(C)c1nn(-c2cccc(N(C)C)c2)c2nc(C(=O)NS(C)(=O)=O)cc(-c3cnc(N4CCC(C#N)CC4)nc3)c12` [Compound 95, 4-[2-(4-cyanopiperidin-1-yl)pyrimidin-5-yl]-1-[3-(dimethylamino)phenyl]-N-(methanesulfonyl)-3-(propan-2-yl)-1H-pyrazolo[3,4-b]pyridine-6-carboxamide], the results for the concentration for a half-maximal effect (EC50) at CFTR ΔF508, on ΔF508-CFTR [1] and on ΔF508-CFTR [2] were 10 nM, 649 nM and 838 nM, respectively. Besides, the “% Activity at 1 μM (Ieq*)” value on CFTR ΔF508 is recorded as 180%. Also, the results for the “% Activation” value at ΔF508-CFTR [1] and at ΔF508-CFTR [2] were 611.7% and 355.6%, respectively.

Take `CC(C)c1nn(-c2cccc(N(C)C)c2)c2nc(C(=O)NS(C)(=O)=O)cc(-c3ccc(N(C)C4CCOCC4)cc3)c12` [Compound 96, 1-[3-(dimethylamino)phenyl]-N-(methanesulfonyl)-4-{4-[methyl(oxan-4-yl)amino]phenyl}-3-(propan-2-yl)-1H-pyrazolo[3,4-b]pyridine-6-carboxamide]: on CFTR ΔF508, the half-maximal effective concentration (EC50) was less than 30 nM and the “% Activity at 1 μM (Ieq*)” value is given as 310%. At ΔF508-CFTR [1], the “% Activation” value is on record as 707.5% and the EC50 was 473 nM. In addition, at ΔF508-CFTR [2], the “% Activation” value is listed as 406.6% and the half-maximal effective concentration (EC50) was 367 nM.

Turning to `CC(C)c1nn(-c2cccc(N3CCCC3)c2)c2nc(C(=O)NS(C)(=O)=O)cc(-c3ccc(N(C)C4CCOCC4)cc3)c12` [Compound 110, N-(methanesulfonyl)-4-{4-[methyl(oxan-4-yl)amino]phenyl}-3-(propan-2-yl)-1-[3-(pyrrolidin-1-yl)phenyl]-1H-pyrazolo[3,4-b]pyridine-6-carboxamide], at CFTR ΔF508, the EC50 is less than 30 nM and the “% Activity at 1 μM (Ieq*)” value is recorded as 170%. For the same compound, at ΔF508-CFTR [1], the “% Activation” value was found to be 665.7% and the half-maximal effective concentration (EC50) came to 336 nM. Besides, at ΔF508-CFTR [2], the “% Activation” value is 451.8% and the EC50 amounted to 358 nM.

On to `CCS(=O)(=O)NC(=O)c1cc(-c2ccc(N3CCOCC3)cc2)c2c(C)nn(-c3ccc(F)cc3F)c2n1` [Compound 113, 1-(2,4-difluorophenyl)-N-(ethanesulfonyl)-3-methyl-4-[4-(morpholin-4-yl)phenyl]-1H-pyrazolo[3,4-b]pyridine-6-carboxamide], for which the EC50 at CFTR ΔF508 was 32 nM; on ΔF508-CFTR [1], 235 nM; at ΔF508-CFTR [2], 464 nM. For the same compound, at CFTR ΔF508, the “% Activity at 1 μM (Ieq*)” value is on record as 310%. Moreover, the “% Activation” value is recorded as 455.63% at ΔF508-CFTR [1] and 262.33% on ΔF508-CFTR [2].

On to `COC1CCN(c2cc(C(=O)NS(C)(=O)=O)nc3c2c(C(C)C)nn3-c2cccc(C)c2)CC1` [Compound 117, N-(methanesulfonyl)-4-(4-methoxypiperidin-1-yl)-1-(3-methylphenyl)-3-(propan-2-yl)-1H-pyrazolo[3,4-b]pyridine-6-carboxamide], for which, on CFTR ΔF508, the EC50 is more than 1000 nM and the “% Activity at 1 μM (Ieq*)” value is 81%. Besides, on ΔF508-CFTR [1], the “% Activation” value is given as 417.92% and the EC50 is 200 nM. Besides, on ΔF508-CFTR [2], the “% Activation” value turned out to be 281.88% and the half-maximal effective concentration (EC50) was found to be 333 nM.

Consider `CC(C)c1nn(C2CCCCC2)c2nc(C(=O)NS(C)(=O)=O)cc(-c3cnc(N4CCC(C#N)CC4)nc3)c12` [Compound 119, 4-[2-(4-cyanopiperidin-1-yl)pyrimidin-5-yl]-1-cyclohexyl-N-(methanesulfonyl)-3-(propan-2-yl)-1H-pyrazolo[3,4-b]pyridine-6-carboxamide], for which the concentration for a half-maximal effect (EC50) is more than 1000 nM at CFTR ΔF508, 331 nM at ΔF508-CFTR [1] and 520 nM at ΔF508-CFTR [2]. For the same compound, the “% Activity at 1 μM (Ieq*)” value on CFTR ΔF508 is 157%. Moreover, the “% Activation” value on ΔF508-CFTR [1] was 389.93%; on ΔF508-CFTR [2], 188.53%.

As to `COCCN(CCOC)c1ccc(-c2cc(C(=O)NS(C)(=O)=O)nc3c2c(C(C)C)nn3C2CCCCC2)cn1` [Compound 121, 4-{6-[bis(2-methoxyethyl)amino]pyridin-3-yl}-1-cyclohexyl-N-(methanesulfonyl)-3-(propan-2-yl)-1H-pyrazolo[3,4-b]pyridine-6-carboxamide], at CFTR ΔF508, the EC50 is 74 nM and the “% Activity at 1 μM (Ieq*)” value is reported as 206%. Further, at ΔF508-CFTR [1], the “% Activation” value is recorded as 368.6% and the EC50 is 282 nM. On ΔF508-CFTR [2], the “% Activation” value is given as 159.13% and the 50% effective concentration (EC50) turned out to be 653 nM.

Consider `CC(C)c1nn(-c2cccc(N3CCOCC3)n2)c2nc(C(=O)NS(C)(=O)=O)cc(-c3ccc(N4CCOCC4)cc3)c12` [Compound 128, N-(methanesulfonyl)-4-[4-(morpholin-4-yl)phenyl]-1-[6-(morpholin-4-yl)pyridin-2-yl]-3-(propan-2-yl)-1H-pyrazolo[3,4-b]pyridine-6-carboxamide], for which, at CFTR ΔF508, the EC50 is less than 30 nM and the “% Activity at 1 μM (Ieq*)” value is 235%. On ΔF508-CFTR [1], the “% Activation” value is recorded as 529.57% and the EC50 is 252 nM. On ΔF508-CFTR [2], the “% Activation” value was found to be 357.47% and the EC50 worked out at 516 nM.
